In the first test the test system is ACAT. The experiment in a line: ACAT inhibitory activity (rabbit liver microsomal fraction). The test is classed as biochemical, Japanese-White Rabbit. The note with it: [1-14C]oleyl-CoA and exogenous cholesterol. The method, then:
Enzyme specimen ACAT is prepared from liver microsomal fraction of Japanese-White Rabbit in accordance with the method described in Smith et al., Clinica Chimica Acta, 158, 271 (1986). The ACAT activity is determined by measuring the amount of labeled cholesterol esters from [1-^14 C]oleyl-CoA and exogenous cholesterol also according to the method of Smith et al., ibid. Thus, inhibition rates (%) of the compounds of the present invention against ACAT at a concentration of 0.3 μM are shown in the following table, together with the results of Melinamide (N-(α-methylbenzyl)linoleamide) and YM-17E (1,3-bis[[1-cycloheptyl-3-(p-dimethylaminophenyl)ureido]methyl]-benzene dihydrochloride), as reference compounds, measured at the same time.
Regarding `CCCCCN(C/C=C/C#CC(C)(C)C)CCNC(=O)CSc1cccc2ccccc12` [Example 1, (E)-N-[2-[N'-Pentyl-(6,6-dimethyl-2-hepten-4-ynyl)amino]ethyl]-(1-naphthylthio)acetamide], the “Inhibition Rate at 0.3 μM” value is 70%.

As to `CCCCCN(CC#CC#CC(C)(C)C)CCNC(=O)CSc1cccc2ccccc12` [Example 2, N-[2-[N'-Pentyl-(6,6-dimethyl-2,4-heptadiynyl)amino]ethyl]-(1-naphthylthio)acetamide], the “Inhibition Rate at 0.3 μM” value amounted to 76%.

For `CCCCCN(CCCC#CC(C)(C)C)CCNC(=O)CSc1cccc2ccccc12` [Example 3, N-[2-[N'-Pentyl-(6,6-dimethyl-4-heptynyl)amino]ethyl]-(1-naphthylthio)acetamide], the “Inhibition Rate at 0.3 μM” value is reported as 68%.

As to `CCCCCN(CC#CC#CC(C)(C)C)CCNC(=O)CSc1ccc2ccccc2c1` [Example 4, N-[2-[N'-Pentyl-(6,6-dimethyl-2,4-heptadiynyl)amino]ethyl]-(2-napthylthio)acetamide], the “Inhibition Rate at 0.3 μM” value was determined as 78%.

Turning to `CCCCCN(CC#CC#CC(C)(C)C)CCNC(=O)CSc1ccc(C)c(C)c1` [Example 10, N-[2-[N'-Pentyl-(6,6-dimethyl-2,4-heptadiynyl)amino]ethyl]-(3,4-dimethylphenylthio)acetamide], the “Inhibition Rate at 0.3 μM” value amounted to 84%.

With `CCCCCN(CC#CC#CC(C)(C)C)CCNC(=O)CSc1c(C)cccc1C` [Example 11, N-[2-[N'-Pentyl-(6,6-dimethyl-2,4-heptadiynyl)amino]ethyl]-(2,6-dimethylphenylthio)acetamide], the “Inhibition Rate at 0.3 μM” value turned out to be 87%.

Consider `CCCCCN(CC#CC#CC(C)(C)C)CCNC(=O)CSc1ccc2oc3ccccc3c2c1` [Example 24, N-[2-[N'-Pentyl-(6,6-dimethyl-2,4-heptadiynyl)amino]ethyl]-(2-dibenzofuranylthio)acetamide], for which the “Inhibition Rate at 0.3 μM” value is 64%.

With `CCCCCN(CC#CC#CC(C)(C)C)CCNC(=O)CSc1c2ccccc2cc2ccccc12` [Example 26, N-[2-[N'-Pentyl-(6,6-dimethyl-2,4-heptadiynyl)amino]ethyl]-(9-anthrylthio)acetamide], the “Inhibition Rate at 0.3 μM” value is reported as 66%.

Take `CCCCCN(CC#CC#CC(C)(C)C)CCNC(=O)C[S+]([O-])c1cccc2ccccc12` (stereo not shown) [Example 29, N-[2-[N'-Pentyl-(6,6-dimethyl-2,4-heptadiynyl)amino]ethyl]-(1-naphthylsulfinyl)acetamide]: the “Inhibition Rate at 0.3 μM” value stood at 70%.

Regarding `CCCCCN(CC#CC#CC(C)(C)C)CCNC(=O)CS(=O)(=O)c1cccc2ccccc12` [Example 30, N-[2-[N'-Pentyl-(6,6-dimethyl-2,4-heptadiynyl)amino]ethyl]-(1-naphthylsulfonyl)acetamide], the “Inhibition Rate at 0.3 μM” value stood at 75%.

With `CCCCN(CC#CC#CC(C)(C)C)CCNC(=O)CSc1cccc2ccccc12` [Example 34, N-[2-[N'-Butyl-(6,6-dimethyl-2,4-heptadiynyl)amino]ethyl]-(1-naphthylthio)acetamide], the “Inhibition Rate at 0.3 μM” value was determined as 61%.

Regarding `CC(C)CCCN(CC#CC#CC(C)(C)C)CCNC(=O)CSc1cccc2ccccc12` [Example 36, N-[2-[N'-(4-Methylpentyl)-(6,6-dimethyl-2,4-heptadiynyl)amino]ethyl]-(1-naphthylthio)acetamide], the “Inhibition Rate at 0.3 μM” value was 75%.

Regarding `CCCCC/C=C\C/C=C\CCCCCCCC(=O)NC(C)c1ccccc1` (stereo not drawn) [Melinamide, N-(α-methylbenzyl)linoleamide, reference compound], the “Inhibition Rate at 0.3 μM” value came out at 15%.

For `CN(C)c1ccc(NC(=O)N(Cc2cccc(CN(C(=O)Nc3ccc(N(C)C)cc3)C3CCCCCC3)c2)C2CCCCCC2)cc1.Cl.Cl` [YM-17E, 1,3-bis[[1-cycloheptyl-3-(p-dimethylaminophenyl)ureido]methyl]-benzene dihydrochloride, reference compound], the “Inhibition Rate at 0.3 μM” value came to 50%.

For another test, the system named is absorption of cholesterol. Description: Cholesterol absorption inhibitory activity in rat. The note with it: 100 mg/kg oral; [3H] cholesterol emulsion; serum radioactivity 4 hours after administration. The test is classed as in vivo, Sprague-Dawley rats. The method, then:
Cholesterol absorption inhibitory activity is determined by the method described in Fukushima et al., Journal of Atherosclerosis Research, 10, 403 (1969).
That is, Sprague-Dawley rats of 7 weeks age weighing 200 to 250 g are divided into groups at random and fed for 7 days with free access to diet. Then, the compound of the present invention and [^3 H] cholesterol emulsion (suspension of 6.96 mg of cholesterol and 177 mg of triolein in 0.8 ml of 6.8% skimmed milk aqueous solution) prepared into a dose indicated are forcedly given orally (Experiment Group).
As a control group, the solvent used to suspend the compound of the present invention instead of the compound of the present invention in Experiment Group and [^3 H] cholesterol emulsion are forcedly administered orally.
Four hours after administration, blood is collected from the tail. The cholesterol absorption inhibitory activity of the compound is determined in terms of the radiation activity of [^3 H) observed in serum by comparing between the control group and the experiment group. Inhibition rate (%) at 100 mg/kg is calculated and the results are shown in the following table together with the result of YM-17E used as a reference compound.
Take `CCCCCN(C/C=C/C#CC(C)(C)C)CCNC(=O)CSc1ccc2ccccc2c1` [Example 6, (E)-N-[2-[N'-Pentyl-(6,6-dimethyl-2-hepten-4-ynyl)amino]ethyl]-(2-naphthylthio)acetamide]: the “Inhibition Rate at 100 mg/kg” value turned out to be 73%.

On to `CN(C)c1ccc(NC(=O)N(Cc2cccc(CN(C(=O)Nc3ccc(N(C)C)cc3)C3CCCCCC3)c2)C2CCCCCC2)cc1.Cl.Cl` [YM-17E, 1,3-bis[[1-cycloheptyl-3-(p-dimethylaminophenyl)ureido]methyl]-benzene dihydrochloride, reference compound], for which the “Inhibition Rate at 100 mg/kg” value is 63%.
